Data as given in US12071424B2, “IRE1 small molecule inhibitors” (Cornell University, priority 2017, dated 2024).

Target: T1, IRE1a (Homo sapiens, UniProt O75460)
T1 construct: purchased SignalChem
Assay: In vitro FRET assay (IRE1a cleavage of XBP1 RNA probe)
Format: biochemical
Details: 2 nM SignalChem IRE1a, tested as Formic Acid Salt (37: HCl Salt)
Protocol: In vitro FRET assay was performed to evaluate the ability of select compounds to inhibit IRE1, the results of which are summarized in Table 3. To perform the in vitro FRET assay, 1× complete assay buffer (CAB: […], 50 mM sodium citrate pH 7.15, 1 mM magnesium acetate, 0.02% tween 20) was used to SignalChem IRE1a protein to a final concentration of 2 nM. Selected compounds were serially diluted with DMSO in a non-binding black 384-well plate for a total of 15 ul in each well. 2 ul of the serially diluted compound or DMSO control were then added to new wells containing 98 ul of 1× CAB, for a total volume of 100 ul, 10 ul of which were then transferred to wells of a new plate. 5 ul of the diluted IRE1a was then added to each well. 5 ul of a […] XBP1 RNA probe was then added to each well. Fluorescence was then read over 30 minutes in kinetic mode (485/515 nm).
Two RNA probes were used, XBP1 wildtype (SEQ ID NO: 2) which is able to be spliced by active IRE1a or XBP1 mutant (SEQ ID NO: 3) which is unable to be spliced. Each probe contained a 5′ 6-FAM modification and a 3′ IOWA black FQ modification. […]

T1 sequence (O75460 19-977): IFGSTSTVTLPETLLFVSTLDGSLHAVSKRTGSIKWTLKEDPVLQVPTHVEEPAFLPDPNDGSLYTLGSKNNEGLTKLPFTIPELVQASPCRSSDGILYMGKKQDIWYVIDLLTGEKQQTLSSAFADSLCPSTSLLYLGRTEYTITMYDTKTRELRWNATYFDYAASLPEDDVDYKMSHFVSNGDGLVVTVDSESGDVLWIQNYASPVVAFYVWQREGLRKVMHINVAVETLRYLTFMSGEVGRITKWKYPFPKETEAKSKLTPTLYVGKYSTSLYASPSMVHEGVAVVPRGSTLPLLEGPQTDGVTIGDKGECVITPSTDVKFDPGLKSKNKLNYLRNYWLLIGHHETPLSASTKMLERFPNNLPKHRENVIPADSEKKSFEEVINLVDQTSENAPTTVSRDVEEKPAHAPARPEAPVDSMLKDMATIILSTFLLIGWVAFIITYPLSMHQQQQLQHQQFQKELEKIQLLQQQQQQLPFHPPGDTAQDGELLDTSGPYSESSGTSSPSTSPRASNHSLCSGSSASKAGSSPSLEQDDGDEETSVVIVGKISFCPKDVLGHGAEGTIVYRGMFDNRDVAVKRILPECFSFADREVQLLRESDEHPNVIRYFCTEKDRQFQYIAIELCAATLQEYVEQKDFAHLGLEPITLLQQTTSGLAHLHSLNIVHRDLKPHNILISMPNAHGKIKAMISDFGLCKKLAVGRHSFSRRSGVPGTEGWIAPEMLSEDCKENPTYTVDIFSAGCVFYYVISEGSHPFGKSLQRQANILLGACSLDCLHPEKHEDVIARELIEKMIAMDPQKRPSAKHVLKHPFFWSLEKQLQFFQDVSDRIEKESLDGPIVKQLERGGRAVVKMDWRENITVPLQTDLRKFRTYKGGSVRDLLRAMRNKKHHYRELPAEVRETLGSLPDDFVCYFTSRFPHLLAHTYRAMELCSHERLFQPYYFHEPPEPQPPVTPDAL

IC50 [nM]	SMILES
50 to 100	CCc1cc(-c2cc(F)c(NS(=O)(=O)c3ccccc3Cl)nc2OC)cc2cnc(N[C@H]3CC[C@@](C)(N(C)C)CC3)nc12 [Compound 144, 2-chloro-N-(5-(2-(((1s,4s)-4-(dimethylamino)-4-methylcyclohexyl)amino)-8-ethylquinazolin-6-yl)-3-fluoro-6-methoxypyridin-2-yl)benzenesulfonamide]
≤ 5	CCc1cc(-c2cnc(NS(=O)(=O)c3ccccc3Cl)s2)cc2cnc(N[C@H]3CC[C@H](N)CC3)nc12 [Compound 41]
≤ 5	N[C@H]1CC[C@H](Nc2ncc3cc(-c4ccc(NS(=O)(=O)c5ccccc5Cl)c(F)c4)ccc3n2)CC1 [Compound 50, N-(4-(2-(((1r,4r)-4-aminocyclohexyl)amino)quinazolin-6-yl)-2-fluorophenyl)-2-chlorobenzene-sulfonamide]
≤ 5	CCc1cc(-c2cc(F)c(NS(=O)(=O)c3ccccc3Cl)cc2OC)cc2cnc(N[C@H]3CC[C@H](N)CC3)nc12 [Compound 42, N-(4-(2-(((1r,4r)-4-aminocyclohexyl)amino)-8-ethylquinazolin-6-yl)-2-fluoro-5-methoxyphenyl)-2-chlorobenzene-sulfonamide]
≤ 5	CCc1cc(-c2sc(NS(=O)(=O)c3ccccc3Cl)nc2C)cc2cnc(N[C@H]3CC[C@H](N)CC3)nc12 [Compound 38]
100 to 10000	CCc1cc(-c2ccc(N(C)S(=O)(=O)c3ccccc3Cl)cc2C)cc2cnc(N[C@H]3CC[C@H](N)CC3)nc12 [Compound 31, N-(4-(2-(((1r,4r)-4-aminocyclohexyl)amino)-8-ethylquinazolin-6-yl)-3-methylphenyl)-2-chloro-N-methylbenzene-sulfonamide]
5 to 50	COc1nc(NS(=O)(=O)c2ccccc2Cl)ccc1-c1cc(C)c2nc(N[C@H]3CC[C@@H](N(C)C)CC3)ncc2c1 [Compound 139, 2-chloro-N-(5-(2-(((1s,4s)-4-(dimethylamino)cyclohexyl)amino)-8-methylquinazolin-6-yl)-6-methoxypyridin-2-yl)benzenesulfonamide]
5 to 50	COc1nc(NS(=O)(=O)c2ccccc2Cl)c(F)cc1-c1cc(C)c2nc(N[C@H]3CC[C@@H](N(C)C)CC3)ncc2c1 [Compound 147, 2-chloro-N-(5-(2-(((1s,4s)-4-(dimethylamino)cyclohexyl)amino)-8-methylquinazolin-6-yl)-3-fluoro-6-methoxypyridin-2-yl)benzenesulfonamide]
5 to 50	CCc1cc(-c2ccc(NS(=O)(=O)c3ccccc3Cl)nc2OC)cc2cnc(N[C@H]3CC[C@@](C)(N(C)C)CC3)nc12 [Compound 143, 2-chloro-N-(5-(2-(((1s,4s)-4-(dimethylamino)-4-methylcyclohexyl)amino)-8-ethylquinazolin-6-yl)-6-methoxypyridin-2-yl)benzenesulfonamide]
≤ 5	CCc1cc(-c2cc(F)c(NS(=O)(=O)c3ccccc3Cl)c(F)c2)cc2cnc(N[C@H]3CC[C@H](N)CC3)nc12 [Compound 63, N-(4-(2-(((1r,4r)-4-aminocyclohexyl)amino)-8-ethylquinazolin-6-yl)-2,6-difluorophenyl)-2-chlorobenzene-sulfonamide]
≤ 5	CCc1cc(-n2cc(NS(=O)(=O)c3ccccc3Cl)cn2)cc2cnc(N[C@H]3CC[C@H](N)CC3)nc12 [Compound 43, N-(1-(2-(((1r,4r)-4-aminocyclohexyl)amino)-8-ethylquinazolin-6-yl)-1H-pyrazol-4-yl)-2-chlorobenzene-sulfonamide]
≤ 5	CCc1cc(NS(=O)(=O)c2ccccc2Cl)nnc1-c1cc(CC)c2nc(N[C@H]3CC[C@H](N)CC3)ncc2c1 [Compound 96, N-(6-(2-(((1r,4r)-4-aminocyclohexyl)amino)-8-ethylquinazolin-6-yl)-5-ethylpyridazin-3-yl)-2-chlorobenzenesulfonamide]
5 to 50	CCc1cc(-c2cc(F)c(NS(=O)(=O)c3ccccc3Cl)nc2OC)cc2cnc(N[C@H]3CC[C@@H](N(C)C)CC3)nc12 [Compound 142, 2-chloro-N-(5-(2-(((1s,4s)-4-(dimethylamino)cyclohexyl)amino)-8-ethylquinazolin-6-yl)-3-fluoro-6-methoxypyridin-2-yl)benzenesulfonamide]
100 to 10000	Cc1nc(NS(=O)(=O)c2ccccc2Cl)c(F)cc1-c1cc(F)c2nc(N[C@H]3CC[C@H](N(C)C)CC3)ncc2c1 [Compound 156, 2-chloro-N-(5-(2-(((1r,4r)-4-(dimethylamino)cyclohexyl)amino)-8-fluoroquinazolin-6-yl)-3-fluoro-6-methylpyridin-2-yl)benzenesulfonamide]
50 to 100	CCc1cc(-c2ccc(NS(=O)(=O)c3ccccc3Cl)nc2C)cc2cnc(N[C@H]3CC[C@H](N(C)CC(F)(F)F)CC3)nc12 [Compound 126, 2-chloro-N-(5-(8-ethyl-2-(((1r,4r)-4-(methyl(2,2,2-trifluoroethyl)amino)cyclohexyl)amino)quinazolin-6-yl)-6-methylpyridin-2-yl)benzenesulfonamide]
≤ 5	N[C@H]1CC[C@H](Nc2ncc3cc(-c4ccc(NS(=O)(=O)c5ccccc5Cl)nn4)ccc3n2)CC1 [Compound 49, N-(6-(2-(((1r,4r)-4-aminocyclohexyl)amino)quinazolin-6-yl)pyridazin-3-yl)-2-chlorobenzene-sulfonamide]
≤ 5	COc1cc(-c2ccc(NS(=O)(=O)c3ccccc3Cl)cc2C)cc2cnc(N[C@H]3CC[C@H](N)CC3)nc12 [Compound 36, N-(4-(2-(((1r,4r)-4-aminocyclohexyl)amino)-8-methoxyquinazolin-6-yl)-3-methylphenyl)-2-chlorobenzene-sulfonamide]
≤ 5	CCc1cc(-c2cnc(NS(=O)(=O)c3ccccc3Cl)nc2)cc2cnc(N[C@H]3CC[C@H](N)CC3)nc12 [Compound 39, N-(5-(2-(((1r,4r)-4-aminocyclohexyl)amino)-8-ethylquinazolin-6-yl)pyrimidin-2-yl)-2-chlorobenzene-sulfonamide]
50 to 100	Cc1cc(N(C)S(=O)(=O)c2ccccc2Cl)ccc1-c1cc(O)c2nc(N[C@H]3CC[C@H](N)CC3)ncc2c1 [Compound 30, N-(4-(2-(((1r,4r)-4-aminocyclohexyl)amino)-8-hydroxyquinazolin-6-yl)-3-methylphenyl)-2-chloro-N-methylbenzene-sulfonamide]
≤ 5	CC(C)c1cc(-c2cc(NS(=O)(=O)c3ccccc3Cl)nn2C)cc2cnc(N[C@H]3CC[C@H](N)CC3)nc12 [Compound 40, N-(5-(2-(((1r,4r) 4-aminocyclohexyl)amino)-8-isopropylquiazolin-6-yl)-1-methyl-1H-pyrazol-3-yl)-2-chlorobenzene-sulfonamide]
50 to 100	COc1cc(-c2cc(NS(=O)(=O)c3ccccc3Cl)nn2C)cc2cnc(N[C@H]3CC[C@H](N)CC3)nc12 [Compound 45, N-(5-(2-(((1r,4r)-4-aminocyclohexyl)amino)-8-methoxyquinazolin-6-yl)-1-methyl-1H-pyrazol-3-yl)-2-chlorobenzene-sulfonamide]

System: IRE1a
Assay: IRE1a Endoribonuclease Nanoluciferase Assay (XBP1 luciferase reporter in 293T cells)
Format: cell-based, human
Details: Homo sapiens, HEK-293T, ER stressor, tested as Formic Acid Salt (37: HCl Salt)
Protocol: Compounds disclosed herein assessed for disruption of IRE1 signaling using a IRE1a Endoribonuclease Nanoluciferase Assay. Briefly, 25×10^5 293T cells were seeded in a 10 cm^2 tissue culture plate. About 24 hours later, the cells were transfected with Effectene. In a 15 mL tube, the following was added: 2 ug XBP1 luciferase reporter plasmid (PGK-Luc2-P2A-XBP1u-Nanoluciferase-Pest); 300 ul EC buffer; and 16 ul Enhancer, followed by incubation at room temp for 5 minutes. Next, 60 ul Effectene (Qiagen 301427) was added, followed by incubation at room temperature for 10 minutes. 2.6 mL cDMEM media was added. Old media was aspirated from the cells, followed by addition of 7 mL fresh media. Full transfection mixture was added dropwise to cells. Cells were incubated for 6 hours, followed by trypsinization, centrifugation and resuspension in 11 mL fresh cDMEM media. 100 uL of cells were plated per a well in a 96 well plate. A day later, ER stressors of choice +/−inhibitors were added. To harvest, media was aspirated from cells completely, then 50 uL 1× passive lysis buffer (Promega: E1941) was added per well and put on shaker (300 rpm) for 30 minutes at room temperature. Cells were centrifuged, and 15 uL sample per well was added to a new, opaque white 384 well plate (Corning 3570). 15 uL OneGlo (nanoluciferase kit, Promega N1630) was added. Plates were spun down, placed on shaker (300 rpm) for 10 minutes. Plates were read on luminometer, 1000 ms integration time per well. 15 uL Stop an Glo (nanoluciferase kit) was added. Plates were spun down, placed on shaker (300 rpm) for 10 minutes. Plates were read on luminometer, 1000 ms second integration time per well. Recordings are provided below in Table 4.

EC50 [nM]	SMILES
≤ 5	CCc1cc(-c2ccc(NS(=O)(=O)c3ccccc3Cl)c(F)c2)cc2cnc(N[C@@H]3CC[C@H](N)[C@H](C)C3)nc12 [Compound 70, N-(4-(2-(((1R,3R,4S)-4-amino-3-methylcyclohexyl)amino)-8-ethylquinazolin-6-yl)-2-fluorophenyl)-2-chlorobenzene-sulfonamide]
≤ 5	CCc1cc(-c2ccc(NS(=O)(=O)c3ccccc3Cl)c(F)c2)cc2cnc(N[C@H]3CCCNC3)nc12 [Compound 73, (S)-2-chloro-N-(4-(8-ethyl-2-(piperidin-3-ylamino)quinazolin-6-yl)-2-fluoropbenyl) benzenesulfon-amide]
100 to 10000	N[C@H]1CC[C@@H](Nc2ncc3cc(-c4ccc(NS(=O)(=O)c5ccccc5Cl)c(F)c4)ccc3n2)C1 [Compound 80, N-(4-(2-(((1R,3S)-3-aminocyclopentyl)amino)quinazolin-6-yl)-2-fluorophenyl)-2-chlorobenzene-sulfonamide]
